Experimental data taken from PubChem BioAssay AID180 (DTP/NCI, 2004).
Several values for one entry are separate records, joined by “and”; a condition that tells them apart may be missing. Equal entries are not always repeated.

System: BDF1 mice, Adenocarcinoma 755 s.c., tumor weight T/C
Assay: NCI In Vivo Anticancer Drug Screen. Data for tumor model Adenocarcinoma 755 (subcutaneous) in B6D2F1 (BDF1) mice
Conditions: endpoint: mean tumor weight, higher = larger tumour
Method in brief: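 Transplantable tumor implanted; mice dosed with compound or vehicle; survival or tumor size recorded; ratio of treated to vehicle control reported.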

For `Clc1ncnc2c1ncn2C1CCCCC1`, the T/C (dose: 6.25 mg/kg/injection, schedule: Q01DX011 (ip), vehicle: carboxymethylcellulose (CMC)) was 91 % of control, the T/C (dose: 12.5 mg/kg/injection, schedule: Q01DX011 (ip), vehicle: carboxymethylcellulose (CMC)) was 73 % of control and the T/C (dose: 25.0 mg/kg/injection, schedule: Q01DX011 (ip), vehicle: carboxymethylcellulose (CMC)) was 81 % of control.
For `CC(=O)[C@H]1CC[C@H]2[C@@H]3C[C@H](F)C4=CC(=O)CC[C@]4(C)[C@H]3C(=O)C[C@]12C`, the T/C (dose: 3.5 mg/kg/injection, schedule: Q01DX011 (sc), vehicle: steriod suspending solution) was 82 % of control, the T/C (dose: 7.0 mg/kg/injection, schedule: Q01DX011 (sc), vehicle: steriod suspending solution) was 66 % of control and the T/C (dose: 55.0 mg/kg/injection, schedule: Q01DX011 (sc), vehicle: steriod suspending solution) was 15 % of control and 20 % of control. For the same compound, the T/C (dose: 110.0 mg/kg/injection, schedule: Q01DX011 (sc), vehicle: steriod suspending solution) was 13 % of control and 14 % of control and the T/C (dose: 220.0 mg/kg/injection, schedule: Q01DX011 (sc), vehicle: steriod suspending solution) was 3 % of control and 8 % of control.
`CC(C)Cn1cnc2c(Sc3c([N+](=O)[O-])ncn3C)nc(N)nc21` was tested, and the T/C (dose: 0.2 mg/kg/injection, schedule: Q01DX011 (ip), vehicle: methylcellulose (MC)) was 71 % of control, the T/C (dose: 0.39 mg/kg/injection, schedule: Q01DX011 (ip), vehicle: methylcellulose (MC)) was 70 % of control and the T/C (dose: 0.78 mg/kg/injection, schedule: Q01DX011 (ip), vehicle: methylcellulose (MC)) was 68 % of control. The T/C (dose: 3.12 mg/kg/injection, schedule: Q01DX011 (ip), vehicle: methylcellulose (MC)) was 48 % of control, the T/C (dose: 6.25 mg/kg/injection, schedule: Q01DX011 (ip), vehicle: methylcellulose (MC)) was 22 % of control and the T/C (dose: 12.5 mg/kg/injection, schedule: Q01DX011 (ip), vehicle: methylcellulose (MC)) was 7 % of control. For the same compound, the T/C (dose: 25.0 mg/kg/injection, schedule: Q01DX011 (ip), vehicle: methylcellulose (MC)) was 2 % of control.
For `N#[N+]c1cnc([O-])[nH]c1=O`, the T/C (dose: 1.25 mg/kg/injection, schedule: Q01DX011 (ip), vehicle: carboxymethylcellulose (CMC)) was 111 % of control, the T/C (dose: 1.41 mg/kg/injection, schedule: Q01DX011 (ip), vehicle: carboxymethylcellulose (CMC)) was 80 % of control and the T/C (dose: 1.47 mg/kg/injection, schedule: Q01DX011 (ip), vehicle: carboxymethylcellulose (CMC)) was 116 % of control. For the same compound, the T/C (dose: 2.5 mg/kg/injection, schedule: Q01DX011 (ip), vehicle: carboxymethylcellulose (CMC)) was 53 % of control, the T/C (dose: 2.83 mg/kg/injection, schedule: Q01DX011 (ip), vehicle: carboxymethylcellulose (CMC)) was 108 % of control and the T/C (dose: 2.95 mg/kg/injection, schedule: Q01DX011 (ip), vehicle: carboxymethylcellulose (CMC)) was 98 % of control. The T/C (dose: 5.0 mg/kg/injection, schedule: Q01DX011 (ip), vehicle: carboxymethylcellulose (CMC)) was 39 % of control, the T/C (dose: 5.65 mg/kg/injection, schedule: Q01DX011 (ip), vehicle: carboxymethylcellulose (CMC)) was 94 % of control and the T/C (dose: 5.9 mg/kg/injection, schedule: Q01DX011 (ip), vehicle: carboxymethylcellulose (CMC)) was 76 % of control. For the same compound, the T/C (dose: 11.3 mg/kg/injection, schedule: Q01DX011 (ip), vehicle: carboxymethylcellulose (CMC)) was 49 % of control, the T/C (dose: 1170.0 micrograms/kg/injection, schedule: Q01DX011 (ip), vehicle: carboxymethylcellulose (CMC)) was 86 % of control and the T/C (dose: 2925.0 micrograms/kg/injection, schedule: Q01DX011 (ip), vehicle: carboxymethylcellulose (CMC)) was 78 % of control.
With `COc1cccc2c1cc([N+](=O)[O-])c1c(C(=O)O)cc3c(c12)OCO3` the T/C (dose: 50.0 mg/kg/injection, schedule: Q01DX011 (ip), vehicle: other) was 59 % of control and the T/C (dose: 100.0 mg/kg/injection, schedule: Q01DX011 (ip), vehicle: other) was 43 % of control.
With `CC(C)(COS(C)(=O)=O)C(=O)N1CCN(C(=O)C(C)(C)COS(C)(=O)=O)CC1` the T/C (dose: 2.4 mg/kg/injection, schedule: Q01DX011 (ip), vehicle: carboxymethylcellulose (CMC)) was 162 % of control, the T/C (dose: 4.7 mg/kg/injection, schedule: Q01DX011 (ip), vehicle: carboxymethylcellulose (CMC)) was 82 % of control and the T/C (dose: 9.4 mg/kg/injection, schedule: Q01DX011 (ip), vehicle: carboxymethylcellulose (CMC)) was 60 % of control. The T/C (dose: 18.8 mg/kg/injection, schedule: Q01DX011 (ip), vehicle: carboxymethylcellulose (CMC)) was 57 % of control.
